Patent US11434241B2, “Pyrimidine derivatives for prevention and treatment of bacterial infections” (UNIVERSITE DE LIEGE, priority 2018, dated 2022)
Values after ≈ are worked out from the molar mass of the structure shown. Like-named read-outs stand apart in the source and are kept apart here.

How the values were obtained:
[1] = system: Staphylococcus epidermidis (ATCC 35984, also known as RP62A or MRSE); assay: MIC determination on S. epidermidis (EUCAST, OD600 after overnight growth in MHB); format: cell-based
Method: The Minimal Inhibitory Concentration (MIC) of molecules 2329, 2348, 2412, 2452 and 2461 was determined on Staphylococcus epidermidis (ATCC 35984, also known as RP62A) according to EUCAST (European Committee on Antimicrobial Susceptibility Testing) recommendations.
Briefly, a single colony grown on a Tryptic Soy Agar (TSA) plate was resuspended and cultured in Tryptic Soy Broth (TSB) overnight (O/N) in aerobic conditions (37° C. with 220 rpm shaking), next day a 1:50 inoculum in Mueller-Hinton broth (MHB) was incubated in aerobic conditions for 3 hr and an inoculum of 1:100 dilution, corresponding to 3×10^5 CFU/ml, was incubated in presence or absence of different concentrations of the molecules in 1% DMSO (vehicle). After O/N growth the OD of each culture was measured at 600 nm in a spectrophotometer (OD600). The MIC represents the concentration at which there is no visible growth of bacteria, i.e. ΔOD at 600 nm equal to zero (blank is the medium alone).
The Minimal Inhibitory Concentration (MIC) of pyrazolopyrimidine molecules 2539, 2544, 2666,2676, 2693, 2783, 2784 and 2782 and of purine molecules 2498, 2511, 2525, 2527, 2833, and 2840 was determined on S. epidermidis (ATCC 35984, also known as RP62A or MRSE) according to EUCAST (European Committee on Antimicrobial Susceptibility Testing) recommendations.
Briefly, a single colony grown on an agar plate was resuspended and cultured in Triptic Soy Broth (TSB) medium overnight (O/N) in aerobic conditions (37° C. with 220 rpm shaking), next day a 1:50 inoculum in Mueller-Hinton broth (MHB) was incubated in aerobic conditions for 3 hr (OD=0.08-0.1) and an inoculum of 1:300 dilution, corresponding to 3×10^5 CFU/ml, was incubated in presence or absence of different concentrations of each of the molecules in 1% DMSO (vehicle). After O/N growth the OD of each culture was measured at 600 nm (600) in a spectrophotometer (Victor 3-Perkin Elmer). The MIC represents the concentration at which there is no visible growth of bacteria, i.e. ΔOD at 600 nm equal to zero (where ΔOD is the difference between the OD with the molecule and the OD of the blank, the medium alone).
(§1) Molecule 36z has been tested for its potential antibacterial activity by determining its minimal inhibitory concentration (MIC) according to protocols recommended by EUCAST to assess the efficacy of antibiotics against bacterial strains. In brief MIC in MRSA (ATCC BAA-1556) or in Xen29 (Perkin Elmer-ATCC 12600) for 36z (molecule 25 in WO2009/034386) was determined by culturing a single colony of MRSA or Xen29 in brain heart infusion (BHI) broth overnight (O/N) in aerobic conditions (37° C. with 220 rpm shaking), while MIC for MRSE (ATCC 35984) was determined by culturing MRSE in TSB O/N. Next day a 1:100 inoculum in Mueller-Hinton broth (MHB) is incubated in aerobic conditions for 3 hr (OD=0.08-0.1) and an inoculum of 1:300 dilution, corresponding to 3×10^5 CFU/ml, is incubated in presence or absence of different concentrations of the tested molecules in 1% DMSO. After O/N growth the OD of each culture was measured at 600 nm (OD600) in a spectrophotometer (Victor 3-Perkin Elmer). The MIC represents the concentration at which there is no visible growth of bacteria, i.e. ΔOD at 600 nm equal to zero (blank is the medium alone). No antibacterial activity was found against MRSA (ATCC BAA-1556), Xen29 (Perkin Elmer-ATCC 12600 or MRSE (ATCC 35984) strains when the molecule was used at concentrations up to 200 μM.

[2] = system: S. aureus Xen29 (ATCC 12600); assay: MIC determination on bioluminescent S. aureus Xen29; format: cell-based, Staphylococcus aureus; details: for MIC: Staphylococcus aureus; for antibacterial activity / inhibition of Xen29 growth (in words): MHB medium
Method: (§2) Further experiments are conducted using different strains of S. aureus, as clinically relevant Gram-positive bacterial strains: S. aureus ATCC 25904, methicillin-resistant S. aureus (MRSA) ATCC BAA-1556, Glycopeptide intermediate-resistant (GISA) S. aureus Mu-50 (ATCC 700695) in order to determine the Minimal Inhibitory Concentration (MIC) which is the minimal concentration required to prevent bacterial growth. The bioluminescent strain S. aureus Xen29 (ATCC 12600) was also used. This strain is derived from the parental strain S. aureus ATCC 12600, a pleural fluid isolate, which is also designated as NCTC8532.
(§3) A single colony selected from the different strains of S. aureus is resuspended and cultured in brain heart infusion (BHI) broth overnight (O/N) in aerobic conditions (37° C. with 220 rpm shaking), next day a 1:100 inoculum in Mueller-Hinton broth (MHB) is incubated in aerobic conditions for 3 hr (=OD0.08-0.1) and an inoculum of 1:300 dilution, corresponding to 3×10^5 CFU/ml, is incubated in presence or absence of different concentrations of the tested molecules in 1% DMSO. After O/N growth the OD of each culture was measured at 600 nm (OD600) in a spectrophotometer (Victor 3-Perkin Elmer). The MIC represents the concentration at which there is no visible growth of bacteria, i.e. ΔOD at 600 nm equal to zero (blank is the medium alone). […] The MIC of molecule 2329 against Glycopeptide intermediate-resistant (GISA) S. aureus Mu-50 (ATCC 700695) is in between 25 and 30 μM, while it is above 50 μM for molecules 2348, 2412, and 2452.
(§4) Further experiments are conducted using different strains of S. aureus, as clinically relevant Gram-positive bacterial strains: methicillin-resistant S. aureus (MRSA) ATCC BAA-1556 and S. aureus Xen29 (Perkin Elmer ATCC 12600).
(§5) To determine the MIC of the above mentioned molecules in MRSA or in Xen29, a single colony of MRSA or Xen29 is resuspended and cultured in brain heart infusion (BHI) broth overnight (O/N) in aerobic conditions (37° C. with 220 rpm shaking), next day a 1:100 inoculum in Mueller-Hinton broth (MHB) is incubated in aerobic conditions for 3 hr (OD=0.08-0.1) and an inoculum of 1:300 dilution, corresponding to 3×10^5 CFU/ml, is incubated in presence or absence of different concentrations of the tested molecules in 1% DMSO. After O/N growth the OD of each culture was measured at 600 nm (OD600) in a spectrophotometer (Victor 3-Perkin Elmer). The MIC represents the concentration at which there is no visible growth of bacteria, i.e. ΔOD at 600 nm equal to zero (blank is the medium alone).
as §1

[3] = system: methicillin-resistant S. aureus (MRSA) ATCC BAA-1556; assay: MIC determination on methicillin-resistant S. aureus; format: cell-based, Staphylococcus aureus; details: for MIC: Staphylococcus aureus; for antibacterial activity against MRSA (in words): MHB medium
Method: as §2, §3, §4, §5, §1

[4] = Staphylococcus epidermidis, MHB medium, tested up to 100 μM, read-out: MIC MRSE
[5] = Staphylococcus epidermidis, read-out: MIC MRSE
[6] = MHB medium, tested up to 100 μM, hydrochloride, read-out: MIC MRSE

Compound	MIC ([1]; Staphylococcus epidermidis, read-out: MIC MRSE (comparison molecules of WO2009/034386)) [µM]	MIC ([2]; ATCC12600, read-out: MIC Xen29 (comparison molecules of WO2009/034386)) [µM]	MIC ([3]; read-out: MIC MRSA (comparison molecules of WO2009/034386)) [µM]	antibacterial activity / inhibition of MRSE growth (in words) ([1]; MHB medium)	MIC [1, 4] [µM]	antibacterial activity / inhibition of Xen29 growth (in words) [2]	MIC ([2]; ATCC12600, read-out: MIC Xen29) [µM]	antibacterial activity against MRSA (in words) [3]	MIC ([3]; read-out: MIC MRSA) [µM]	MIC [1, 5] [µM]	MIC [1, 6] [µM]	MIC ([1]; MHB medium, tested up to 100 μM, read-out: MIC MRSE) [µM]
CCCCOc1nc(NC2CC2)c2ncn(Cc3c(F)ccc(C)c3F)c2n1 [38z″, 2-Butoxy-N-cyclopropyl-9-(2,6-difluoro-3-methylbenzyl)-9H-purin-6-amine, reference compound]	> 200	> 200	> 200	–	–	–	–	–	–	–	–	–
CSc1nc(N[C@@H]2C[C@H]2c2ccc(F)c(F)c2)c2ncn(C)c2n1 [Molecule 2498, N-((1R,2S)-2-(3,4-difluorophenyl)cyclopropyl)-9-methyl-2-(methylthio)-9H-purin-6-amine]	–	–	–	able to inhibit MRSE growth	60 (≈ 20.8 µg/mL)	able to inhibit	30 (≈ 10.4 µg/mL)	active	30 (≈ 10.4 µg/mL)	–	–	–
CCSc1nc(N[C@@H]2C[C@H]2c2ccc(F)c(F)c2)c2ncn(C)c2n1 [Molecule 2525, N-((1R,2S)-2-(3,4-difluorophenyl)cyclopropyl)-2-(ethylthio)-9-methyl-9H-purin-6-amine]	–	–	–	able to inhibit MRSE growth	40 (≈ 14.5 µg/mL)	able to inhibit	30 (≈ 10.8 µg/mL)	active	25 (≈ 9.04 µg/mL)	–	–	–
CCSc1nc(N[C@@H]2C[C@H]2c2ccc(F)c(F)c2)c2ncn(CC)c2n1 [Molecule 2527, N-((1R,2S)-2-(3,4-difluorophenyl)cyclopropyl)-9-ethyl-2-(ethylthio)-9H-purin-6-amine]	–	–	–	able to inhibit MRSE growth	25 (≈ 9.39 µg/mL)	able to inhibit	30 (≈ 11.3 µg/mL)	active	25 (≈ 9.39 µg/mL)	–	–	–
CSc1nc(N[C@@H]2C[C@H]2c2ccc(F)c(F)c2)c2cnn(C)c2n1 [Molecule 2539, N-((1R,2S)-2-(3,4-difluorophenyl)cyclopropyl)-1-methyl-6-(methylthio)-1H-pyrazolo[3,4-d]pyrimidin-4-amine]	–	–	–	able to inhibit MRSE growth	50 (≈ 17.4 µg/mL)	able to inhibit	30 (≈ 10.4 µg/mL)	active	25 (≈ 8.68 µg/mL)	–	–	–
CCn1ncc2c(N[C@@H]3C[C@H]3c3ccc(F)c(F)c3)nc(SC)nc21 [Molecule 2544, N-((1R,2S)-2-(3,4-difluorophenyl)cyclopropyl)-1-ethyl-6-(methylthio)-1H-pyrazolo[3,4-d]pyrimidin-4-amine]	–	–	–	able to inhibit MRSE growth	80 (≈ 28.9 µg/mL)	able to inhibit	50 (≈ 18.1 µg/mL)	active	50 (≈ 18.1 µg/mL)	–	–	–
CSc1nc(N[C@@H]2C[C@H]2c2ccc(F)c(F)c2)c2cnn(C(C)C)c2n1.Cl [Molecule 2676, N-((1R,2S)-2-(3,4-difluorophenyl)cyclopropyl)-1-isopropyl-6-(methylthio)-1H-pyrazolo[3,4-d]pyrimidin-4-amine hydrochloride]	–	–	–	able to inhibit MRSE growth	–	–	> 100	active	20	50	–	–
CCCSc1nc(N[C@@H]2C[C@H]2c2ccc(F)c(F)c2)c2cnn(C)c2n1.Cl [Molecule 2782, N-((1R,2S)-2-(3,4-difluorophenyl)cyclopropyl)-6-(propylthio)-1-methyl-1H-pyrazolo[3,4-d]pyrimidin-4-amine hydrochloride]	–	–	–	–	–	–	–	active	25	> 100	>100	–
CCSc1nc(N[C@@H]2C[C@H]2c2ccc(F)c(F)c2)c2cnn(CC)c2n1.Cl [Molecule 2783, N-((1R,2S)-2-(3,4-difluorophenyl)cyclopropyl)-6-(ethylthio)-1-ethyl-1H-pyrazolo[3,4-d]pyrimidin-4-amine hydrochloride]	–	–	–	–	–	–	–	active	25	> 100	>100	–
CCCSc1nc(N[C@@H]2C[C@H]2c2ccc(F)c(F)c2)c2cnn(CC)c2n1.Cl [Molecule 2784, N-((1R,2S)-2-(3,4-difluorophenyl)cyclopropyl)-6-(propylthio)-1-ethyl-1H-pyrazolo[3,4-d]pyrimidin-4-amine hydrochloride]	–	–	–	–	–	–	–	active	50	> 100	>100	–
CCCCSc1nc(N[C@@H]2C[C@H]2c2ccc(F)c(F)c2)c2ncn(CC)c2n1 [Molecule 2840, 2-(butylthio)-N-((1R,2S)-2-(3,4-difluorophenyl)cyclopropyl)-9-ethyl-9H-purin-6-amine]	–	–	–	–	> 100	–	–	active	50 (≈ 20.2 µg/mL)	–	–	>100
